{"source": "patent US4879382A", "about": "“Pyrido(3,4-f)pyrrolo(1,2-b)(1,2,5)triazepines” (Hoechst-Roussel Pharmaceuticals, Inc., priority 1988, dated 1989)", "key": {"[1]": {"experiment": "tetrabenazine induced ptosis assay (antidepressant activity)", "assay_type": "in vivo, mice (Charles River, CD-1)", "conditions": "mice; for ED50: Mus musculus, ip, dose for 50% inhibition of tetrabenazine-induced ptosis", "protocol": "Several of the compounds of this invention are also useful as antidepressants by virtue of their ability to elicit an antidepressant response in mammals. Antidepressant activity is determined by the tetrabenazine induced ptosis assay in mice, [International Journal of Neuropharmacology, 8, 72 (1969], a standard assay for the determination of antidepressant activity. […] Tetrabenazine methanesulfonate (76.78% as the free base) is dissolved in distilled water and the concentration of the solution is adjusted so that the dose, administered intraperitoneally (i.p.) to the animals, is 40 mg of tetrabenazine base per kg of animal body weight. The test compound is administered intraperitoneally (i.p.) or orally to the subject animals, and the tetrabenazine solution is administered 30 minutes or 60 minutes, respectively, thereafter. Tetrabenazine solution and the solvent used to dissolve, or suspend, the test compounds are administered by the same route and at the same intervals as the test compounds to a control group. […] The vehicle-control group score is used as a determination of the validity of each test. The results are discarded and the test is repeated, if the control score is determined to be less than 17. […] A linear-regression analysis is used to estimate ED50 values and 95% confidence limits."}, "[2]": {"experiment": "dark avoidance assay (memory enhancing activity)", "assay_type": "in vivo", "conditions": "mice", "protocol": "Pursuant to the dark avoidance assay, mice are tested for their ability to remember an unpleasant stimulus for a period of 24 hours. A mouse is placed in a chamber that contains a dark compartment; a strong incandescent light drives it to the dark compartment, where an electric shock is administered through metal plates on the floor. The animal is removed from the testing apparatus and tested again, 24 hours later, for the ability to remember the electric shock."}, "[3]": {"experiment": "phenyl-p-quinone writhing assay (analgesic activity)", "assay_type": "in vivo, mice (Charles River, CD-1)", "conditions": "mice", "protocol": "The compounds of this invention are useful as analgesic agents due to their ability to alleviate pain in mammals. The procedure employed to determine analgetic utility is a modification of the phenyl-p-quinone writhing assay in mice, a standard assay for analgetic activity [Proc. Soc. Exptl. Med., 95 729 (1957)]. Pursuant to the modified procedure phenyl-p-benzoquinone (Eastman, 12.5 mg) is dissolved in 5 ml of 95% ethanol and the solution is diluted to a total volume of 100 ml with distilled water. The solution is administered to the subject mice intraperitoneally at a dose of 10 ml per kg of body weight. A characteristic \"writhe\", an inward rotation of one or more feet with twisting and turning of the trunk, drawing in of the abdominal wall, lordosis and arching of the back, is produced.\nA total of 28 male mice (Charles River, CD-1), weighing 18 to 30 grams, are employed for a time response. The subject animals receive food and water ad libitum. Test compounds are dissolved in distilled water, or suspended in distilled water containing one drop of a suitable surfactant, such as Tween-80.\nFour groups of five animals (20 animals) are given the test compound subcutaneously (s.c.) or perorally (p.o.) at 15, 30, 45 and 60 minutes prior to administration of the phenyl-p-benzoquinone. A control group (2 animals per group) receive an equal volume of the vehicle. After the administration of the phenyl-p-benzoquinone, the mice are placed separately in one liter beakers, and after five minutes, are observed for ten minutes. The number of writhes for each animal is recorded. Thefollowing formula is used to compute the percent inhibition: [formula]\nA dose range determination is run in the same manner as the time response except 10 animals per group are tested at the peak time of test drug activity. Fifty animals, 4 test drug groups, and a vehicle control are employed. Animals are dose and tested in a randomized manner. The time period with the greatest percent of inhibition is considered the peak time."}, "[4]": {"experiment": "adjuvant-induced polyarthritis syndrome in rats assay (antiinflammatory activity)", "assay_type": "in vivo, rats (Charles River-Wistar Lewis)", "conditions": "Rattus norvegicus, po, 504 h, read-out: Non-Injected Paw ED50", "protocol": "Several of the compounds of this invention have utility as antiinflammatory agents. Antiinflammatory activity was measured pursuant to the adjuvant-induced polyarthritis syndrome in rats assay by a procedure similar to that described by C. M. Pearson and F. D. Wood, Arthritis and Rheumatism, 2, 440 (1959).\nGroups of 10 male Charles River-Wistar Lewis rats weighing 150 to 175 g were individually housed and maintained on a regular rat chow diet. Water was given ad libitum. The adjuvant was prepared by suspending 75 mg of Mycobacterium butyricum (Difco Laboratories, Detroit, Mich.) in 10 ml of white paraffin oil with continuous stirring for 2 hours at room temperature prior to administration. Test compounds are prepared by suspending the drug in water, adding one drop of Tween 80 per 10 ml of suspension, and homogenizing. The adjuvant suspension (0.1 ml) was injected into the footpad of the left hind paw of the rat. Test compound suspensions were administered orally (10 ml/kg) the day before adjuvant suspension injection and the administration was continued daily for 21 days. […] Injected and non-injected paw volumes were determined on the day the adjuvant suspension was given, and on subsequent days thereafter (usually days 5, 10, 18, and 21) by the method of C. […]\nThe percent inhibition of paw volume (injected and non-injected paw) were calculated by the following formula: [formula] […]"}}, "data": [{"smiles": "CC1Nc2cnccc2N(C)n2cccc21", "note": "(centres unmarked) [10,11-Dihydro-5,10-dimethyl-5H-pyrido[3,4-f]pyrrolo[1,2-b][1,2,5]triazepine]", "values": [{"measurement": "inhibition of ptosis", "setting": "[1]; at a dose of 10 mg/kg i.p.", "result": 47, "unit": "%"}, {"measurement": "% of Animals With Scopolamine Induced Memory Deficit Reversed", "setting": "[2]; 2.5 mg/kg s.c.", "result": 33, "unit": "%"}]}, {"smiles": "CN1c2ccncc2NCc2cccn21", "note": "[10,11-Dihydro-5-methyl-5H-pyrido[3,4-f]pyrrolo[1,2-b][1,2,5]triazepine]", "values": [{"measurement": "% Inhibition of Writhing", "setting": "[3]; at a dose of 12.6 mg/kg s.c. (footnote 1)", "result": 50, "unit": "%"}]}, {"smiles": "CN(C)CCCC1Nc2cnccc2N(C)n2cccc21", "note": "(centres unmarked) [10,11-Dihydro-5-methyl-10-[3-(N,N-dimethylamino)propyl]-5H-pyrido[3,4-f]pyrrolo[1,2-b][1,2,5]triazepine]", "values": [{"measurement": "% Inhibition of Writhing at a Screening Dose of 20 mg/kg, s.c.", "setting": "[3]", "result": 57, "unit": "%"}, {"measurement": "% of Animals With Scopolamine Induced Memory Deficit Reversed", "setting": "[2]; 1.25 mg/kg s.c.", "result": 27, "unit": "%"}]}, {"smiles": "CN1CCC(C2Nc3cnccc3N(C)n3cccc32)CC1", "note": "(centres unmarked) [10,11-Dihydro-5-methyl-10-[(1-methyl)piperidin-4-yl]-5H-pyrido[3,4-f]pyrrolo[1,2-b][1,2,5]triazepine]", "values": [{"measurement": "ED50", "setting": "[1]", "result": 15.7, "unit": "mg/kg"}, {"measurement": "ED50", "setting": "[4]; rats, p.o., daily for 21 days, dose for 50% inhibition of adjuvant induced inflammation, non-injected paw", "result": 53.7, "unit": "mg/kg"}]}, {"smiles": "CNC(=O)N1Cc2cccn2N(C)c2ccncc21.O=C(O)/C=C\\C(=O)O", "note": "[10,11-Dihydro-5-methyl-11-methylcarbamyl-5H-pyrido[3,4-f]pyrrolo[1,2-b][1,2,5]triazepine maleate]", "values": [{"measurement": "% Inhibition of Writhing at a Screening Dose of 20 mg/kg, s.c.", "setting": "[3]", "result": 44, "unit": "%"}]}, {"smiles": "CN1c2ccncc2NC(c2ccccc2)c2cccn21", "note": "(centres unmarked) [10,11-dihydro-5-methyl-10-phenyl-5H-pyrido[3,4-f]pyrrolo[1,2-b][1,2,5]triazepine]", "values": [{"measurement": "% Inhibition of Writhing at a Screening Dose of 20 mg/kg, s.c.", "setting": "[3]", "result": 47, "unit": "%"}]}, {"smiles": "CN1c2ccncc2N(C=O)Cc2cccn21.O=C(O)/C=C\\C(=O)O", "note": "[11-Formyl-10,11-dihydro-5-methyl-5H-pyrido[3,4-f]pyrrolo[1,2-b][1,2,5]triazepine maleate]", "values": [{"measurement": "% Inhibition of Writhing at a Screening Dose of 20 mg/kg, s.c.", "setting": "[3]", "result": 47, "unit": "%"}]}, {"smiles": "CC(=O)Oc1ccccc1C(=O)O", "note": "[Aspirin, reference compound]", "values": [{"measurement": "ED50", "setting": "[4]", "result": 110, "unit": "mg/kg"}]}, {"smiles": "CC(C)=CCN1CCC2(C)c3cc(O)ccc3CC1C2C", "note": "(centres unmarked) [Pentazocine, reference compound]", "values": [{"measurement": "% Inhibition of Writhing", "setting": "[3]; at a dose of 1.3 mg/kg s.c. (footnote 2)", "result": 50, "unit": "%"}]}, {"smiles": "CN(C)CCC=C1c2ccccc2CCc2ccccc21", "note": "[amitryptyline, reference compound]", "values": [{"measurement": "ED50", "setting": "[1]", "result": 1.5, "unit": "mg/kg"}]}, {"smiles": "CNC(=O)Oc1ccc2c(c1)[C@]1(C)CCN(C)[C@@H]1N2C", "note": "[physostigmine, reference compound]", "values": [{"measurement": "% of Animals With Scopolamine Induced Memory Deficit Reversed", "setting": "[2]; 0.31 mg/kg s.c.", "result": 20, "unit": "%"}]}]}
